According to patent US9493416B2, “N-methyl-4-benzylcarbamidopyridinium chloride and a process for its preparation” (Farmak International Holding GmbH, priority 2012, dated 2016):

Assay: Active ingredient release (dissolution) profile from solid gelatine capsules in pharmacopeial buffer solutions
Format: physicochemical
Settings: for released faster than FAV00A-Io by: 370.6 mg capsules vs FAV00A-Io 500 mg capsules
Experimental: Results of comparative studies of active ingredient release profiles from a drug formulated as solid gelatine capsules using two salts of N-methyl-4-benzylcarbamidopyridine, namely the chloride and iodide salts labelled “FAV00A-Cl” and “FAV00A-Io” hereinafter.
In order to assess the FAV00A-Cl substance release rate from a finished medicinal product, studies of active ingredient release profiles were carried out for FAV00A-Cl 370.6 mg capsules, in 3 reference pharmacopeial buffer solutions with pH 1.2, 4.5, 6.8 and typical measurement conditions (1000 ml of 0.1M HCl; 100 rpm (basket); 1000 ml of acetate buffer solution pH 4.5; 100 rpm (basket); 1000 ml of phosphate buffer solution pH 6.8; 100 rpm (basket), respectively). Study results were compared against FAV00A-Io 500 mg capsules (with consideration of molecular weights of FAV00A-Cl and FAV00A-Io substances: the dosage of FAV00A-Cl substance 370.6 mg is equivalent to the dosage of FAV00A-Io substance 500 mg). The iodide salt FAV00A-Io used in the study was the α-crystalline form of amizon as described in applicant's co-pending patent applications WO 2011/158058 and WO 2011/157743.

C[n+]1ccc(C(=O)NCc2ccccc2)cc1.[Cl-] [FAV00A-Cl, N-methyl-4-benzylcarbamidopyridinium chloride]
released faster than FAV00A-Io by (0.1M HCl, 5-th minute): 40%
released faster than FAV00A-Io by (0.1M HCl, 10-th minute): 20%
Dissolution classification of the product (based on release in 15 min of more than 85%): rapidly dissolving
released faster than FAV00A-Io by (buffer solution with pH 4.5, 5-th minute): 25%
released faster than FAV00A-Io by (buffer solution with pH 4.5, 10-th minute): 10%
released faster than FAV00A-Io by (buffer solution with pH 6.8, 5-th minute): 25%
released faster than FAV00A-Io by (buffer solution with pH 6.8, 10-th minute): 15%
Release of substance from finished medicinal product in 15 min (in 15 min, 3 reference pharmacopoeial buffer solutions (pH 1.2, 4.5, 6.8)): more than 85%
